# Measurements reported in article PMC9636582 (The Journal of Biological Chemistry, 2022).
# How the values were obtained:
# GAL4-PPARδ LBD = molecular target: T1, GAL4-PPARδ LBD (Homo sapiens, UniProt Q03181); test: GAL4-PPARδ LBD luciferase reporter assay in HEK293 cells; type: cell-based; settings: for EC50: GAL4-PPARδ LBD, calculated from luciferase activity with Quest Graph EC50 Calculator; for PPARδ activation compared with dietary PUFAs (in words): 30 μM fatty acids, Fig. 2A; for PPARδ activation (in words): 100 μM fatty acids, Fig. 1B
# T1 construct: chimeric receptors containing the LBD of various NRs; expressed in transfected cells; host or cells: HEK293
# T1 sequence (Q03181 211-439 limits assumed): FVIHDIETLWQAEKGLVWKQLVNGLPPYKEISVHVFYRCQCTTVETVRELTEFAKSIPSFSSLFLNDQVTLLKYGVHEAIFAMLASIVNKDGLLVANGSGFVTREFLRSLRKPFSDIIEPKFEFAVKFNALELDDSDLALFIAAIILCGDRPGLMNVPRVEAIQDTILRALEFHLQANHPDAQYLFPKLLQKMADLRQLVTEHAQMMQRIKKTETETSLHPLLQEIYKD
# GAL4-PPARα LBD = molecular target: T2, GAL4-PPARα LBD (Homo sapiens, UniProt Q07869); test: GAL4-PPARα LBD luciferase reporter assay in HEK293 cells; type: cell-based; settings: GAL4-PPARα LBD, calculated from luciferase activity with Quest Graph EC50 Calculator
# T2 construct: chimeric receptors containing the LBD of various NRs; expressed in transfected cells; host or cells: HEK293
# T2 sequence (Q07869 239-466 limits assumed): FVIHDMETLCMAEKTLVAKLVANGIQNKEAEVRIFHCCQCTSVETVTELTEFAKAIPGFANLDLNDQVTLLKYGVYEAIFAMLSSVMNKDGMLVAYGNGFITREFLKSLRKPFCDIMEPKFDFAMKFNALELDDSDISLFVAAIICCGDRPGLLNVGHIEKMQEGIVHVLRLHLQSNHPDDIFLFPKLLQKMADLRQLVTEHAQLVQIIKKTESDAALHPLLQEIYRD
# VP16-PPARδ / GAL4-SRC-1 = molecular target: T3, VP16-PPARδ / GAL4-SRC-1 (Homo sapiens, UniProt Q03181); test: mammalian two-hybrid assay, VP16-PPARδ and coactivator GAL4-SRC-1; type: cell-based; settings: 30 μM fatty acids, 100 nM GW1516, HEK293 cells, Fig. 3A
# T3 construct: expressed in transfected cells; host or cells: HEK293
# T3 sequence (Q03181 1-441): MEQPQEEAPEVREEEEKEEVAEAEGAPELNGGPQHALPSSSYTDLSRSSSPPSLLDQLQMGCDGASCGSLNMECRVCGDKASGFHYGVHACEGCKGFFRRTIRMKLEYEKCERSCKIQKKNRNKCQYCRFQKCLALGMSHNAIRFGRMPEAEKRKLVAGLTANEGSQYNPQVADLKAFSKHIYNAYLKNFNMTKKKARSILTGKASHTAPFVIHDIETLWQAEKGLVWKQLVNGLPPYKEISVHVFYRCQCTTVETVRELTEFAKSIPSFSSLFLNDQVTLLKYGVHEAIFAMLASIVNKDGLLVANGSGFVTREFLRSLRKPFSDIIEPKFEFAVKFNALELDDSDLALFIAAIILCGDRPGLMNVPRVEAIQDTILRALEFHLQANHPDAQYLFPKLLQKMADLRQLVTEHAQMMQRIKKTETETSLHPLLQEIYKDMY
# T3 sequence (Q15788 595-771 partner limits assumed): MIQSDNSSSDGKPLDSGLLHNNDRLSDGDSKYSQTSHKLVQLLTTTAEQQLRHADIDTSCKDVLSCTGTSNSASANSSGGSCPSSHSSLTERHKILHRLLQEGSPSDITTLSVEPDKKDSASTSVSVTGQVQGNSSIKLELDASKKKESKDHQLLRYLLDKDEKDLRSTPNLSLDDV
# [1] = system: human intestinal organoids; test: fatty acid β-oxidation activity in living organoids (FAOBlue); type: cell-based; settings: organoids pretreated with 500 μM oleic acid 48 h, then 1 μM GW1516 or 30 μM fatty acids 24 h
# [2] = system: human intestinal organoids; test: intracellular triglyceride in human intestinal organoids; type: cell-based; settings: organoids pretreated with 500 μM oleic acid 48 h, then 1 μM GW1516 or 30 μM fatty acids 24 h
# full-length PPARα = full-length PPARα (Homo sapiens, UniProt Q07869); settings: PPRE luciferase reporter, HEK293 cells, Fig. 1C
# VP16-PPARδ / GAL4-NCoR = molecular target: T4, VP16-PPARδ / GAL4-NCoR (Homo sapiens, UniProt Q03181); test: mammalian two-hybrid assay, VP16-PPARδ and corepressor NCoR; type: cell-based; settings: 30 μM fatty acids, HEK293 cells, Fig. 3C
# T4 construct: expressed in transfected cells; host or cells: HEK293
# T4 sequence (Q03181 1-441): T3 sequence (Q03181 1-441)
# VP16-PPARα / GAL4-NCoR = molecular target: T5, VP16-PPARα / GAL4-NCoR (Homo sapiens, UniProt Q07869); test: mammalian two-hybrid assay, VP16-PPARα and corepressor NCoR; type: cell-based; settings: 30 μM fatty acids, HEK293 cells, Fig. 3D
# T5 construct: expressed in transfected cells; host or cells: HEK293
# T5 sequence (Q07869 1-468): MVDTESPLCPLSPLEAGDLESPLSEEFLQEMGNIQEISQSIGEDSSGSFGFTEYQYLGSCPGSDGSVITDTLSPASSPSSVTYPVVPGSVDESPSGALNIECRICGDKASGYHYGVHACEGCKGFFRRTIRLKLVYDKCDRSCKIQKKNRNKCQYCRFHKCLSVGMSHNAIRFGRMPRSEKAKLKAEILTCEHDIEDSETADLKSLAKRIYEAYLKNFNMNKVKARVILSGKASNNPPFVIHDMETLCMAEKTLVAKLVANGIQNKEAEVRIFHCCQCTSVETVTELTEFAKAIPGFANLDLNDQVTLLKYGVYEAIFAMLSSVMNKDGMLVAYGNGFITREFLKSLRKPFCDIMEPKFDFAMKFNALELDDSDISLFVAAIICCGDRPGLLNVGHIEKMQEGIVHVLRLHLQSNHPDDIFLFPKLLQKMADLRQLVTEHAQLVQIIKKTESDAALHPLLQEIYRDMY
# [3] = system: human intestinal organoids; test: PPARδ target gene mRNA expression in human intestinal organoids (RT-qPCR); type: cell-based; settings: 1 μM GW1516 or 30 μM fatty acids for 24 h
Compound,EC50 (GAL4-PPARδ LBD) [µM],EC50 (GAL4-PPARα LBD) [µM],recruitment of coactivator SRC-1 to PPARδ (VP16-PPARδ / GAL4-SRC-1),fatty acid β-oxidation activity [1],intracellular triglyceride levels [2],transactivation of full-length PPARα (in words) (full-length PPARα),PPARδ activation compared with dietary PUFAs (in words) (GAL4-PPARδ LBD),PPARδ activation (in words) (GAL4-PPARδ LBD),interaction between PPARδ and corepressor NCoR (VP16-PPARδ / GAL4-NCoR),interaction between PPARα and corepressor NCoR (VP16-PPARα / GAL4-NCoR),"expression of PPARδ target genes (CPT1A, HMGCS2, PDK4, ACSL1) [3]"
"CCCCC/C=C\C/C=C\C/C=C\CCCCC(=O)O [GLA, γ-linolenic acid, reference compound]",509,11,not,not,not,activated almost equally,,,,,
"CCCCCC(O)CCC=CCC=CCCCCC(=O)O (stereo not drawn) [γHYD, 13-hydroxy-cis-6,cis-9-octadecadienoic acid]",10.6,2.84,induced coactivator-recruitment,enhanced fatty acid β-oxidation,reduced intracellular triglyceride accumulation,,activated PPARδ more robustly than DHA and eicosapentaenoic acid as well as GLA,"more robust PPARδ activation than their original compound, GLA",reduced the interaction,reduced the interaction,increased the expression of PPARδ target genes
"CCCCCC(=O)CCC=CCC=CCCCCC(=O)O [γKetoD, 13-oxo-cis-6,cis-9-octadecadienoic acid]",20.3,4.14,induced coactivator-recruitment,enhanced fatty acid β-oxidation,reduced intracellular triglyceride accumulation,,activated PPARδ more robustly than DHA and eicosapentaenoic acid as well as GLA,"more robust PPARδ activation than their original compound, GLA",reduced the interaction,reduced the interaction,increased the expression of PPARδ target genes
